Some test systems named below: ACHN renal; DU-145 prostate; HCT-15 colon; LOX IMVI melanoma; M14 melanoma; MOLT-4 leukemia; NCI-H23 lung; SF-295 CNS; SNB-19 CNS; UACC-257 melanoma.
What all share (experiment): NCI tumour cell line growth inhibition, 48 h

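Cells were grown in 96-well plates and exposed to each compound for 48 hours at five concentrations; endpoints were interpolated linearly between bracketing concentrations, or set to the highest concentration if not reached. TGI: total growth inhibition.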

Turning to `COc1ccc(N2C(=O)C3c4[nH]c5ccccc5c4C4CCCCCCCCCC4C3C2=O)cc1` (configuration not stated), the TGI in the test on ACHN renal, in the test with DU-145 prostate, in the test with HCT-15 colon, in the test on LOX IMVI melanoma, in the test on M14 melanoma and in the test with MOLT-4 leukemia was above 10 µM in each case. Further, the TGI in the test on NCI-H23 lung, in the test on SF-295 CNS and in the test with SNB-19 CNS was above 10 µM each time.

With `O=C(CC(=O)Nc1ccccc1)NNC(c1cc(N=Nc2ccc(Br)cc2)ccc1O)P(O)O` (configuration not stated), the TGI was above 10 µM in the test with ACHN renal; above 10 µM in the test on DU-145 prostate; above 10 µM with HCT-15 colon; above 10 µM in the test with LOX IMVI melanoma; 3.84 µM in the test with M14 melanoma; 4.15 µM in the test on MOLT-4 leukemia. Further, the TGI in the test on NCI-H23 lung, in the test with SF-295 CNS, with SNB-19 CNS and with UACC-257 melanoma was above 10 µM in each case.

In the case of `CC#CC(O)(C(=O)OC1CC(C)N(C)C(C)(C)C1)C1CCCC1` (configuration not stated), the TGI with ACHN renal, in the test with DU-145 prostate, in the test with HCT-15 colon, in the test on LOX IMVI melanoma, with M14 melanoma and in the test with MOLT-4 leukemia was above 100 µM in each case. The TGI with NCI-H23 lung, in the test on SF-295 CNS, with SNB-19 CNS and in the test with UACC-257 melanoma was above 100 µM in each case.

As to `C/C(=C\CO)CC/C=C(\C)CNc1ccc([N+](=O)[O-])cc1`, the TGI with ACHN renal is above 100 µM; in the test on DU-145 prostate, above 100 µM; with HCT-15 colon it was above 100 µM; in the test on LOX IMVI melanoma, above 100 µM; in the test on M14 melanoma it was above 100 µM; with MOLT-4 leukemia, 18.4 µM. Besides, the TGI was 57.7 µM with NCI-H23 lung, above 100 µM in the test with SF-295 CNS, above 100 µM in the test with SNB-19 CNS and 76.2 µM with UACC-257 melanoma.

As to `O=C(O)CN(CC(=O)O)C(C(=O)O)c1ccccc1` (configuration not stated), the TGI in the test with ACHN renal, in the test with DU-145 prostate, in the test on HCT-15 colon, in the test with LOX IMVI melanoma, in the test with M14 melanoma and in the test with MOLT-4 leukemia was above 100 µM throughout. The TGI in the test on NCI-H23 lung, in the test on SF-295 CNS, with SNB-19 CNS and in the test with UACC-257 melanoma was above 100 µM throughout.

As for `CC(C)=CCC[C@@H](C)C1=C(O)C(N)=C(C)C(=O)C1=O`, the TGI in the test on ACHN renal was 65.4 µM; with DU-145 prostate, above 100 µM; in the test with HCT-15 colon, above 100 µM; in the test with LOX IMVI melanoma it was above 100 µM; with M14 melanoma, above 73.2 µM; in the test with MOLT-4 leukemia, above 56.6 µM. The TGI in the test with NCI-H23 lung was above 100 µM; with SF-295 CNS, above 72.3 µM; in the test on SNB-19 CNS, above 100 µM; in the test on UACC-257 melanoma it was above 100 µM.

For `O=[N+]([O-])c1cc(Cl)ccc1Sc1ccccc1`, the TGI in the test with ACHN renal, with DU-145 prostate, with HCT-15 colon, with LOX IMVI melanoma, with M14 melanoma and with MOLT-4 leukemia was above 100 µM in each case. For the same molecule, the TGI in the test on NCI-H23 lung, in the test on SF-295 CNS, in the test on SNB-19 CNS and with UACC-257 melanoma was above 100 µM throughout.

Regarding `COP(=O)(OC)C(Nc1ccc(Cc2ccc(NC(c3ccco3)P(=O)(OC)OC)cc2)cc1)c1ccco1` (configuration not stated), the TGI was 89.9 µM in the test on ACHN renal; above 100 µM with DU-145 prostate; above 100 µM in the test with HCT-15 colon; above 100 µM in the test on LOX IMVI melanoma; above 100 µM in the test on M14 melanoma; above 100 µM in the test on MOLT-4 leukemia. The TGI was 44.5 µM in the test on NCI-H23 lung, 82.2 µM in the test with SF-295 CNS, 71.3 µM with SNB-19 CNS and above 100 µM in the test on UACC-257 melanoma.

Turning to `CC(C)/C(Cl)=N/OC(=O)Nc1ccc(OC(F)(F)F)cc1`, the TGI is 25.1 µM in the test with ACHN renal; 31.5 µM in the test on DU-145 prostate; 18.8 µM with HCT-15 colon; 5.89 µM in the test on LOX IMVI melanoma; 12 µM in the test on M14 melanoma; above 77.9 µM in the test with MOLT-4 leukemia. Moreover, the TGI with NCI-H23 lung came out at 30.9 µM; in the test with SF-295 CNS it was 33.1 µM; in the test on SNB-19 CNS, 31.6 µM; with UACC-257 melanoma, 26.6 µM.

On to `Nc1nc(Nc2ccccc2)sc1C(=O)c1ccco1`, for which the TGI in the test with ACHN renal stood at 62.2 µM; with DU-145 prostate, 40.8 µM; in the test on HCT-15 colon, 50.9 µM; with LOX IMVI melanoma, 42.8 µM; with M14 melanoma, 36.9 µM; with MOLT-4 leukemia, 35.7 µM. Moreover, the TGI in the test on NCI-H23 lung came out at 35.9 µM; in the test on SNB-19 CNS it was 50.9 µM; with UACC-257 melanoma it was 68.9 µM.

In the case of `N#Cc1c(-c2ccccc2)c2c([nH]c1=O)-c1cc([N+](=O)[O-])ccc1CCC2`, the TGI in the test on ACHN renal is 83.6 µM; in the test with DU-145 prostate, 71.2 µM; in the test with HCT-15 colon, 61 µM; in the test with LOX IMVI melanoma, 81.1 µM; in the test with M14 melanoma, 93.4 µM; in the test with MOLT-4 leukemia it was above 100 µM. For the same molecule, the TGI was 71.1 µM with NCI-H23 lung, 63.1 µM in the test with SF-295 CNS, above 100 µM with SNB-19 CNS and above 100 µM in the test on UACC-257 melanoma.

For the molecule `CCOC(=O)C1=CC(C)(C(=O)OCC)Nc2c(nc(N)[nH]c2=O)N1` (configuration not stated), the TGI with ACHN renal, in the test on DU-145 prostate, in the test on HCT-15 colon, with LOX IMVI melanoma, with M14 melanoma and in the test with MOLT-4 leukemia was above 10 µM each time. Further, the TGI with NCI-H23 lung, in the test with SF-295 CNS, in the test with SNB-19 CNS and with UACC-257 melanoma was above 10 µM each time.

`COc1ccc(NC(C)c2ccncc2)cc1` (configuration not stated): the TGI in the test on ACHN renal, in the test with DU-145 prostate, in the test with HCT-15 colon, in the test with LOX IMVI melanoma, in the test on M14 melanoma and in the test with MOLT-4 leukemia was above 100 µM each time. In addition, the TGI in the test on NCI-H23 lung, in the test on SF-295 CNS and in the test on SNB-19 CNS was above 100 µM in each case.

Values taken from PubChem BioAssay (NCI).
